From patent US20110230477A1, “COMPOUNDS, PHARMACEUTICAL COMPOSITION AND METHODS FOR USE IN TREATING METABOLIC DISORDERS” (Euroscreen S.A., priority 2008, published 2011)
“Also recorded” adds a separate entry of the source.

Experiments:
[1] = system: adipocytes isolated from normal rats; test: Lipolysis assay in isolated adipocytes (normal rats); assay type: cell-based; conditions: adipocytes isolated from normal rats (FIGS. 6 and 7)
Description: Isolated adipocytes were diluted to 5% in KRH-buffer and were pre-treated with compound of the invention (30 μM, 10 μM and 1 μM) for 30 min at 37° C./120 rpm. After the pre-treatment, Isoprenaline (1 μM) was added to the adipocytes followed by 30 min incubation at 37° C./150 rpm. The reactions were put on ice and the buffer was assayed spectrophotometrically for the production of […] from glycerol breakdown in reactions catalyzed by glycerol kinase and glycerol-3-phosphate dehydrogenase and/or Non Esterified Fatty Acid (NEFA). Each data point was investigated in triplicates in two independent experiments.

[2] = molecular target: T1, human GPR43 receptor (hGPR43) (Homo sapiens, UniProt O15552); test: GTPγS binding assay (SPA method); assay type: biochemical; conditions: membranes expressing hGPR43; assay performed in the presence of SCFA; read-out: EC50 (nM) in GTPγ35S assay
T1 construct: expressed in transfected cells
T1 sequence (O15552 1-330): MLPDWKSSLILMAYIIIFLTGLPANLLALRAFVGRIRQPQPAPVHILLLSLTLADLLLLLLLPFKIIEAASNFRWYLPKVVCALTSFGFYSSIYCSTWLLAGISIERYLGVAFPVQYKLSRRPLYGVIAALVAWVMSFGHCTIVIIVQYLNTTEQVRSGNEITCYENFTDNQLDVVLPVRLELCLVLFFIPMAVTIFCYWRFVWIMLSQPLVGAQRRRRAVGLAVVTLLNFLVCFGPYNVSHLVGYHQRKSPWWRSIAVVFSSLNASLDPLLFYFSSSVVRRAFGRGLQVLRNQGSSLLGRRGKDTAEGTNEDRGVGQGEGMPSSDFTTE
In short: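 Membranes (5 μg) from hGPR43-expressing cells were incubated 30 min at room temperature with [35S]GTPγS, compounds (30 μM to 1 nM) and WGA SPA beads. Buffer was 20 mM HEPES pH 7.4, 100 mM NaCl, 10 μg/ml saponin, 30 mM MgCl2 and 10 μM GDP, with SCFA present. Bound label was read by scintillation counting.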

[3] = system: normal diet fed mice; test: In vivo assay of anti-lipolytic activity in rodent model (plasma FFA); conditions: orally administered, 50mg/kg, 15 minutes following the dosing, vs vehicle (FIG. 8)
Description: Male C57BL/6N wild-type are housed one per cage in a room maintained on a 12 h light/dark cycle under constant temperature (22-25° C.) with ad libitum access to food and water. The anti-lipolytic effects of the compounds of the invention are studied in awake mice. Animals are fasted overnight before experimental use. On the day of the experiment, animals are put in metabolic cages and left undisturbed to acclimate to the environment for 1-2 h. blood samples are taken at indicated time points from the intraorbital retrobulbar plexus. A 1% sodium citrate saline solution is used to flush the lines. A pre-treatment blood sample is obtained from each animal to determine baseline values for free fatty acids (FFA) and triglycerides (TG). Compounds of the invention are given via oral gavage, sc injection, iv injection or ip injection for each different series of experiments. Blood samples are collected into pre-cooled tubes pre-coated with heparin (200 μl blood, Li-heparin, Sarstedt) for determination triglycerides and glycerol and in tri-potassium EDTA added sodium fluoride (200 μl blood, K3-EDTA, 1.6 mg/mL+1% NaF, Sarstedt) for determination of plasma free fatty acids. The tubes are placed on wet ice pending processing. Blood samples will be centrifuged at 4000×g, at 4° C., 15 min the resulting plasma will be transferred into non-coated tubes and stored at −80° C. until analyses. […]

[4] = system: NCI-H716 cells; test: GLP-1 release from NCI-H716 cells; assay type: cell-based, Human; conditions: NCI-H716 cells (FIG. 9)
Description: Human intestinal cell line NCI-H716 has been described as cellular model to assess compounds mimicking nutrient-mediated effect such as glucagon-like peptide-1 (GLP-1) secretion.
NCl-H716 cells (ATCC, Manassas) are cultured in Dulbecco's modified eagle's medium (DMEM) containing 10% (v/v) bovine serum, 2 mM L-glutamine, 100 IU/ml penicillin and 100 μg/ml streptomycin in 75 ml flask. Cell adhesion and endocrine differentiation is initiated by growing cells in 96-well plate coated with matrigel in High Glucose DMEM containing 10% (v/v) bovine serum, 2 mM L-glutamine, 100 IU/ml penicillin and 100 μg/ml streptomycin for 2 days. On day 2, the medium is removed and cells are washed once with a pre-warmed wash buffer (Phosphate Buffered salt solution). The wash solution is removed and the SCFA or the compounds of the invention, or a combination of both, are added at the desired concentration in High Glucose DMEM containing 0.1% (v/v) bovine serum and incubated for 2 hours at 37° C. The supernatants are collected in a container. Using the cell-free supernatants, the GLP-1 amount is assessed using a GLP-1 specific ELISA assay kit according the manufacturer's recommendations (ALPCON).

EC50 [2] [nM]	Compound	isoprenaline-induced lipolysis [1]	in vivo FFA baseline [3]	GLP-1 secretion [4]
38	COc1ccc(-c2ccccc2-c2csc(N(C)C(=O)[C@@H](CC(=O)O)CC3CCCC3)n2)cn1 [Compound 139, (R)-3-(cyclopentylmethyl)-4-((4-(2-(6-methoxypyridin-3-yl)phenyl)thiazol-2-yl)(methyl)amino)-4-oxobutanoic acid]	inhibit		
	COc1ccc(-c2ccccc2-c2csc(N(C(=O)[C@@H](CC(=O)O)CC3CCCC3)C3CC3)n2)cn1 [Compound 169, (R)-3-(cyclopentylmethyl)-4-(cyclopropyl(4-(2-(6-methoxypyridin-3-yl)phenyl)thiazol-2-yl)amino)-4-oxobutanoic acid]	inhibit	inhibition; also recorded: inhibit	significantly increases
57	O=C(O)C[C@@H](CC1CCCC1)C(=O)N(c1nc(-c2ccccc2-c2ccc(N3CCCC3=O)nc2)cs1)C1CC1 [Compound 183, (R)-3-(cyclopentylmethyl)-4-(cyclopropyl(4-(2-(6-(2-oxopyrrolidin-1-yl)pyridin-3-yl)phenyl)thiazol-2-yl)amino)-4-oxobutanoic acid]	inhibit	inhibition; also recorded: inhibit	
102	COc1ncc(-c2ccc(Cl)cc2-c2csc(N(C)C(=O)[C@@H](CC(=O)O)Cc3ccccc3)n2)cc1Cl [Compound 222, (R)-3-benzyl-4-((4-(5-chloro-2-(5-chloro-6-methoxypyridin-3-yl)phenyl)thiazol-2-yl)(methyl)amino)-4-oxobutanoic acid]			
87	COc1ncc(-c2ccc(Cl)cc2-c2csc(N(C(=O)[C@@H](CC(=O)O)CC3CCCC3)C3CC3)n2)cc1Cl [Compound 223, (R)-4-((4-(5-chloro-2-(5-chloro-6-methoxypyridin-3-yl)phenyl)thiazol-2-yl)(cyclopropyl)amino)-3-(cyclopentylmethyl)-4-oxobutanoic acid]			
27	COc1ncc(-c2ccc(Cl)cc2-c2csc(N(C(=O)[C@@H](CC(=O)O)CC3CCCC3)C3CC3)n2)cc1F [Compound 224, (R)-4-((4-(5-chloro-2-(5-fluoro-6-methoxypyridin-3-yl)phenyl)thiazol-2-yl)(cyclopropyl)amino)-3-(cyclopentylmethyl)-4-oxobutanoic acid]			
628	C[C@@H](O)CN(C(=O)[C@@H](CC(=O)O)Cc1ccccc1)c1nc(-c2ccccc2Cl)cs1 [Compound 246, (R)-3-benzyl-4-((4-(2-chlorophenyl)thiazol-2-yl)((R)-2-hydroxypropyl)amino)-4-oxobutanoic acid]			

Compound	EC50 [2] [nM]	isoprenaline-induced lipolysis [1]	in vivo FFA baseline [3]	GLP-1 secretion [4]
(3R)-4-((4-(2-chlorophenyl)thiazol-2-yl)(methyl)amino)-4-oxo-3-((tetrahydrofuran-2-yl)methyl)butanoic acid [Compound 155]	94	inhibit		
